According to US7585834B2, “Transporters comprising spaced arginine moieties” (The Board of Trustees of the Leland Stanford Junior …, priority 2001, dated 2009):
Ahx = NCCCCCC(=O)O; Fl = fluorescein

System: human T cell line, Jurkat
Assay: cellular uptake assay of fluorescently labeled peptides (flow cytometry, mean fluorescent signal)
Assay type: cell-based
Conditions: FIG. 1; single amino acid spacing without side chains (glycine, abu, aca); Jurkat cells
Protocol: The fluorescently labeled peptides were dissolved in PBS, pH 7.2, and their concentrations were determined by absorption of fluorescein at 490 nm (ε=67,000). The human T cell line, Jurkat, grown in 10% fetal calf serum in DMEM, was used for all the cellular uptake experiments. Varying amounts of the peptides were added to 3×10^5 cells in a total of 200λ, in wells of microtiter plates, and incubated for varying periods of time, ranging from three to five minutes. The cells were spun, washed three times with cold PBS, incubated with 0.05% trypsin/0.53 mM EDTA (Gibco, Grand Island, N.Y.) at 37° C. for five minutes, washed with PBS, and resuspended in PBS containing 0.1% propidium iodide. The cells were analyzed either using confocal microscopy or fluorescent flow cytometry (FACScan, Becton Dickinson, Milpitas, Calif.). Cells staining with propidium iodide were excluded from the analysis. Data presented is the mean fluorescent signal for the 5000 cells collected. To prevent cellular uptake of the peptides, the cells were treated with sodium azide (1.0%) for 25 minutes prior to exposure to the peptides.

Molecule	cellular uptake of spaced arginine transport moieties tethered to fluorescein, relative to R7 homopolymer
Fl-aca-RabuRRabuRRabuRR-CONH2 [Seq. I.D. No. 5]	ε-aminocaproic acid>γ-aminobutyric acid>glycine
Fl-aca-RGRRGRRGRR-CONH2 [Seq. I.D. No. 4]	ε-aminocaproic acid>γ-aminobutyric acid>glycine
Fl-aca-RacaRRacaRRacaRR-CONH2 [Seq. I.D. No. 6]	ε-aminocaproic acid>γ-aminobutyric acid>glycine

Same assay, conditions: FIG. 2; spacing by naturally occurring amino acids; fluorescein conjugates; Jurkat cells

Molecule	cellular uptake relative to the homopolymer R7 having no spacing
N[C@@H](Cc1ccc(O)cc1)C(=O)O [Seq. I.D. No. 22]	Reduced, or comparable uptake
Fl-aca-RVRRVRRVRR-CONH2 [Seq. I.D. No. 21]	increase in cellular uptake was found
Fl-aca-RGRRGRRGRR-CONH2 [Seq. I.D. No. 4]	increase in cellular uptake was found
C[C@@H](O)[C@H](N)C(=O)O [Seq. I.D. No. 20]	increase in cellular uptake was found
Fl-aca-RNRRNRRNRR-CONH2 [Seq. I.D. No. 16]	increase in cellular uptake was found
CC[C@H](C)[C@H](N)C(=O)O [Seq. I.D. No. 12]	increase in cellular uptake was found
N[C@@H](CCC(=O)O)C(=O)O [Seq. I.D. No. 9]	Reduced, or comparable uptake
Fl-aca-RSRRSRRSRR-CONH2 [Seq. I.D. No. 19]	increase in cellular uptake was found
Fl-aca-RARRARRARR-CONH2 [Seq. I.D. No. 7]	increase in cellular uptake was found
N[C@@H](CC(=O)O)C(=O)O [Seq. I.D. No. 8]	Reduced, or comparable uptake
NCCCC[C@H](N)C(=O)O [Seq. I.D. No. 13]	increase in cellular uptake was found
Fl-aca-RPRRPRRPRR-CONH2 [Seq. I.D. No. 17]	increase in cellular uptake was found
N[C@@H](Cc1c[nH]cn1)C(=O)O [Seq. I.D. No. 11]	increase in cellular uptake was found
NC(=O)CC[C@H](N)C(=O)O [Seq. I.D. No. 18]	increase in cellular uptake was found
Fl-aca-RMRRMRRMRR-CONH2 [Seq. I.D. No. 15]	increase in cellular uptake was found
Fl-aca-RFRRFRRFRR-CONH2 ({Fl-Ahx}-RFRRFRRFRR-NH2) [Seq. I.D. No. 10]	increase in cellular uptake was found

Same assay, conditions: FIG. 4; 6.25 μM; Jurkat cells

Molecule	cellular uptake at the lower concentration
Fl-aca-R7CONH2 [Seq. I.D. No. 2, reference compound]	begins to drop off

Same assay, conditions: FIG. 6; compared with (RX)6R, X = aca, gly-gly or gly; Jurkat cells

Molecule	uptake (mean fluorescence) of (RX)6R transport oligomers versus homopolymers of D-arginine
Fl-aca-r19-CONH2 [Seq. I.D. No. 29, reference compound]	significantly less effective in entering the cells
Fl-aca-r13-CONH2 [Seq. I.D. No. 28, reference compound]	significantly less effective in entering the cells
